Measurements published in patent publication US11078160B2, “Ethynyl compounds, their preparation and their therapeutic use for the treatment of malaria” (SANOFI, priority 2017, dated 2021).
pIC50: −log10 of the molar value. Structures can show the parent of a compound that is named as a salt. Where two headings read alike, the source gives them in different places.

What was measured:
Format in all cases: cell-based
[1] = tested on: strain NF54 of P. falciparum; experiment: 3H-hypoxanthine incorporation growth inhibition assay, P. falciparum NF54; details: for pIC50: read-out: NF54 IC50
Protocol: The biological activity of compounds of formula (I) according to the invention has been tested on the basis of an IC50 evaluation against the strain NF54 of P. falciparum.
For Hypoxanthine assay, parasite cultures were grown in 100 mm petri-dishes in growth media having 5% haematocrit in tri-gas incubator (Cat #3131, Thermo Scientific Forma Series II Water Jacketed CO2 incubator, sold by Thermofisher) having controlled gas mixtures of 4% CO2 and 3% O2 at temperature 37° C.
Parasite growth and morphology was observed daily using thin smears at 100× (oil immersion) magnification following staining with Giemsa stain.
Parasites use hypoxanthine included in the growth media as a precursor in nucleic acid synthesis. Accordingly, by replacing hypoxanthine in the media by a radioactive hypoxanthine, such as ^3H-hypoxanthine as indicated here-under, the rate of DNA replication and growth rate of the parasites can be measured, in particular in the presence of the tested compounds of the invention.
The growth media used for the above-indicated parasites contains 1 L of RPMI-1640 (sold by Invitrogen), […] of Albumax II (sold by Invitrogen), 5 mg of Hypoxanthine (sold by Sigma), 25 mM Hepes (sold by Invitrogen) and 2.5 mg of Gentamycin (sold by Sigma).
The screening media used contains 1 L of RPMI-1640 (sold by Invitrogen), […] of Albumax II (sold by Invitrogen), 25 mM Hepes (sold by Invitrogen) and 2.5 mg of Gentamycin (sold by Sigma).
For this assay, the above described screening media was used, as well as 20 Ci/mmol of a radioactive hypoxanthine (the ligand ^3H-hypoxanthine (20 Ci/mmol, 1 mCi/mL) sold by the American Radiolabeled Chemicals (ARC) from St Louis, Mo.), some Top Seal A (sold by Perkin Elmer), 96 Well Cell Culture plates (CellStar® sold by Greiner Bio-One GmbH), MicroScint® 20 (sold by Perkin Elmer) and GFB plates (sold by Perkin Elmer).
On each 96 well plate, 3 compounds of formula (I) according to the invention as well as one standard compound (positive control) are each tested in 12 wells in duplicate.
Said standard compound is a mixture of Artesunate and Chloroquine, two well-known anti malaria compounds.
The maximum activity value of the parasites is determined as positive control by observing the parasites in the presence of erythrocytes, while the minimum activity value of the parasites is determined in a negative control by observing the erythrocytes in the absence of parasites.
The tested compounds of the invention were assayed at a final concentration of 10 μM.
In order to do so, stock solutions at a concentration of […] of compound to be tested are made available in high recovery vials at a concentration of 10 mM. From this, a 20 μM stock in Screening media is prepared ([…] of 10 mM compound+996 μl of screening media) to keep % DMSO at 0.4.
Starting from 20 μM stock solution, 100 μl is added in the assay plate already containing 100 μl of screening media and 1:2 fold serial 12 point dilutions are made in the plate (10 μM to 4.8 nM) (100 μl of compound is mixed with 100 μl of screening media already present in plates, and so on).
P. falciparum culture diluted to 0.3% p and 1.25% h—synchronous ring stage. The assay was carried out in sterile, in the 96-well plate.
100 μL of P. falciparum culture was added per well and were then incubated at 37° C. for 48 hours. Smears are then made to check for growth of culture control after 48 hours of incubation.
Once ensured that the culture has grown in % p, 50 μL of 3H-Hypoxanthine (0.5 μCi/well) is added in each well, and the assay plate is further incubated for 24 hours.
After 72 hours, the assay plates are harvested on GFB plates. In order to remove nonspecific binding, the plates are washed with 2.5 ml of cooled distilled water and GFB plates were kept for drying at 37° C. over night or 60° C. for 1 hour.
50 μL of Microscint®-20 was added to each well.
The plates are then read in Top Count (45 sec/well).
The assay data were analysed using Graph pad prism ver.5 software. […]

[2] = tested on: P. vivax clinical field isolates; experiment: Ex vivo drug susceptibility assay (schizont maturation, flow cytometry) on P. vivax clinical field isolates; details: for Drug susceptibility difference between species: P. falciparum versus P. vivax clinical field isolates
Text: The biological activity of compound 1b according to the invention has been tested on the basis of an IC50 evaluation against the strain P. vivax.
Plasmodium isolates were collected from patients attending malaria clinics in Timika (Papua, Indonesia), a region endemic for multidrug-resistant strains of P. vivax and P. falciparum. Patients with symptomatic malaria presenting to an outpatient facility were recruited into the study if singly infected with P. falciparum or P. vivax, with a parasitaemia of between […], and the majority (>60%) of parasites at ring stage of development. Venous blood (5 mL) was collected by venepuncture and after removal of host white blood cells by using Plasmodipur filters (EuroProxima B.V., The Netherlands), packed infected red blood cells (iRBCs) were used for the ex vivo drug susceptibility assay.
Standard anti-malarial drugs chloroquine (CQ), piperaquine (PIP), mefloquine (MFQ), and artesunate (AS) (WWARN QA/QC Reference Material Program), and experimental compound 1b were prepared as 1 mg/mL stock solutions in H2O or dimethyl sulfoxide (DMSO) according to the manufacturers' instructions. Drug plates were pre-dosed by diluting the compounds in 50% Methanol followed by lyophilisation and stored at 4° C.
(§1) Drug susceptibility of P. vivax and P. falciparum isolates was measured using a protocol modified from the WHO microtest (see for instance in Marfurt J. et al., Antimicrob Agents Chemother. 2011 September; 55(9):4461).
(§2) Two hundred μL of a 2% haematocrit Blood Media Mixture (BMM), consisting of RPMI 1640 medium plus 10% AB+ human serum (P. falciparum) or McCoy's 5A medium plus 20% AB+ human serum (P. vivax) was added to each well of pre-dosed drug plates containing 11 serial concentrations (2-fold dilutions) of the anti-malarials (maximum concentration shown in brackets) CQ (2,993 nM), PIP (1,029 nM), MFQ (338 nM), AS (49 nM), and compound 1b (237 nM). A candle jar was used to mature the parasites at 37° C. for 35-56 hours. Incubation was stopped when >40% of ring stage parasites had reached the mature schizont stage in the drug-free control wells as determined by light microscopy.
Parasite growth was quantified by nucleic acid staining and data acquisition using flow cytometry as described in detail elsewhere6. Parasite growth was quantified for each drug concentration and normalised to the control well.
The dose-response data were analysed using nonlinear regression analysis and the half-maximal inhibition of growth (IC50) value derived using an inhibitory sigmoid Emax model (In Vitro Analysis and Reporting Tool; IVART7).
Drug plate quality was assured by running schizont maturation assays with the chloroquine-resistant strain K1 and the chloroquine-sensitive strain FC27.

[3] = tested on: P. falciparum clinical field isolates; experiment: Ex vivo drug susceptibility assay (schizont maturation, flow cytometry) on P. falciparum clinical field isolates; details: Plasmodium falciparum, isolates from Timika (Papua, Indonesia), 35-56 hours
Protocol: Plasmodium isolates were collected from patients attending malaria clinics in Timika (Papua, Indonesia), a region endemic for multidrug-resistant strains of P. vivax and P. falciparum. Patients with symptomatic malaria presenting to an outpatient facility were recruited into the study if singly infected with P. falciparum or P. vivax, with a parasitaemia of between […], and the majority (>60%) of parasites at ring stage of development. […]
as §1
as §2, with “A candle jar was used to mature the parasites at 37° C. for 35-56 hours.” left out, “microscopy. […]” for “microscopy.”

[4] = Plasmodium falciparum, NF54, upper bound as printed, 72 hours, 3H-hypoxanthine incorporation
[5] = measured values printed under the bound, 72 hours, 3H-hypoxanthine incorporation, read-out: NF54 IC50 (nM), measured values

Row | SMILES | pIC50 [1, 4] | Drug susceptibility difference between species [2] | other results
1 | N=C(N)NC(=O)c1cc(C#Cc2ccc(Cl)c(C(=O)Nc3ccccn3)c2)cc(C(F)(F)F)c1 [Compound 6, 5-((3-(carbamimidoylcarbamoyl)-5-(trifluoromethyl)phenyl)ethynyl)-2-chloro-N-(pyridin-2-yl)benzamide hydrochloride] | > 8.00 | – | –
2 | N=C(N)NC(=O)c1cc(F)cc(C#Cc2ccc(C(F)(F)F)c(C(=O)Nc3ccccn3)c2)c1 [Compound 7, 5-((3-(carbamimidoylcarbamoyl)-5-fluorophenyl)ethynyl)-N-(pyridin-2-yl)-2-(trifluoromethyl)benzamide hydrochloride] | > 7.70 | – | –
3 | OC(c1cc(C(F)(F)F)nc2c(C(F)(F)F)cccc12)C1CCCCN1 (stereo not drawn) [mefloquine] | – | did not differ significantly | –
4 | Clc1ccc2c(N3CCN(CCCN4CCN(c5ccnc6cc(Cl)ccc56)CC4)CC3)ccnc2c1 [piperaquine] | – | did not differ significantly | –
5 | N=C(N)NC(=O)c1cc(C#Cc2ccc(C(F)(F)F)c(C(N)=O)c2)cc(C(F)(F)F)c1 [Compound 8] | > 7.00 | – | –
6 | N=C(N)NC(=O)c1cc(C#Cc2ccc(C(F)(F)F)c(C(=O)Nc3ccccn3)c2)cc(C(F)(F)F)c1 [Compound 1c, 5-((3-(carbamimidoylcarbamoyl)-5-(trifluoromethyl)phenyl)ethynyl)-N-(pyridin-2-yl)-2-(trifluoromethyl)benzamide malonic acid] | – | – | IC50 [1, 5]: 17 nM; pIC50 ([1]; upper bound, 72 hours, 3H-hypoxanthine incorporation): > 7.70
7 | Cc1cccc(NC(=O)c2cc(C#Cc3cc(F)cc(C(=O)NC(=N)N)c3)ccc2C(F)(F)F)n1 [Compound 3, 5-((3-(carbamimidoylcarbamoyl)-5-fluorophenyl)ethynyl)-N-(6-methylpyridin-2-yl)-2-(trifluoromethyl)benzamide hydrochloride] | > 7.60 | – | –
8 | C[C@H]1[C@H](OC(=O)CCC(=O)O)O[C@@H]2O[C@@]3(C)CC[C@H]4[C@H](C)CC[C@@H]1[C@@]24OO3 [artesunate] | – | did not differ significantly | –
9 | Cc1ccc(C#Cc2cc(C(=O)NC(=N)N)cc(C(F)(F)F)c2)cc1C(=O)Nc1ccccn1 [Compound 4, 5-((3-(carbamimidoylcarbamoyl)-5-trifluoromethyl)phenyl)ethynyl)-2-methyl-N-(pyridin-2-yl)benzamide hydrochloride] | > 8.00 | – | –
10 | N=C(N)NC(=O)c1cc(C#Cc2ccc(C(F)(F)F)c(C(=O)Nc3ccc(O)cn3)c2)cc(C(F)(F)F)c1 [Compound 5, 5-((3-(carbamimidoylcarbamoyl)-5-(trifluoromethyl)phenyl)ethynyl)-N-(5-hydroxypyridin-2-yl)-2-(trifluoromethyl)benzamide hydrochloride] | > 8.00 | – | –
11 | N=C(N)NC(=O)c1cc(C#Cc2ccc(C(F)(F)F)c(C(=O)Nc3ccccn3)c2)cc(C(F)(F)F)c1 [Compound 1a, 5-((3-(carbamimidoylcarbamoyl)-5-(trifluoromethyl)phenyl)ethynyl)-N-(pyridin-2-yl)-2-(trifluoromethyl)benzamide] | > 8.00 | – | IC50 [1, 5]: 7 nM
12 | Cc1cccc(NC(=O)c2cc(C#Cc3cc(C(=O)NC(=N)N)cc(C(F)(F)F)c3)ccc2C)n1 [Compound 2, 5-((3-((diaminomethylene)carbamoyl)-5-(trifluoromethyl)phenyl)ethynyl)-2-methyl-N-(6-methylpyridin-2-yl)benzamide hydrochloride] | – | – | IC50 ([1]; Plasmodium falciparum, NF54, read-out: NF54 IC50 (nM)): < 25 nM
13 | Cl.N=C(N)NC(=O)c1cc(C#Cc2ccc(C(F)(F)F)c(C(=O)Nc3ccccn3)c2)cc(C(F)(F)F)c1 [Compound 1b, 5-((3-(carbamimidoylcarbamoyl)-5-(trifluoromethyl)phenyl)ethynyl)-N-(pyridin-2-yl)-2-(trifluoromethyl)benzamide hydrochloride] | – | did not differ significantly | pIC50 ([2]; Plasmodium vivax, ex vivo, isolates from Timika (Papua, Indonesia), 35-56 hours): 7.92; pIC50 ([1]; upper bound, 72 hours, 3H-hypoxanthine incorporation, hydrochloride): > 7.82; pIC50 [3]: 7.72
